Read-outs that look alike come from different tables or passages of the source. Marks after values point to notes of the source that are not given here. Each block holds one compound with its values, some of them ahead of it.
Key:
[1] = system: Friends Leukemia Virus (FLV); assay: Anti-retroviral potency in a murine model (FLV-infected mice, spleen and body weight); assay type: in vivo, Swiss mice; conditions: for Average Final Weight / Average Weight Change / Average Spleen Weight: FLV-infected four-week old Swiss mice, 300 nanomoles on days 5-9, sacrificed day 12; for Average Spleen Weight: p < 0.01 for MTLJ-1-Foscarnet; for weight gain: FLV-infected mice, treated group
Description: (§1) Evaluation Foscarnet Prodrug Anti-Retroviral Potency in a Murine Model. The effect of prodrug MTLJ-1-Foscarnet on four-week old Swiss mice infected with Friends Leukemia Virus (FLV) was tested by the Luminide Pharmaceutical Corporation. The mice were infected with FLV by an IP injection with 0.5 ml viral solution prepared by resuspending F4-6 cells (1×10^6 cells/ml) in fresh media and harvesting that media 24 hr later and filtering through a […] filter. The Foscarnet Group received 300 nanomoles of Foscarnet on days 5-9. The Carrier Group received 300 nanomoles of carrier on days 5-9. The MTLJ-1-Foscarnet Group received 300 nanomoles of MTLJ-1-Foscarnet on days 5-9. All mice were sacrificed on day 12. The spleens were removed and weighed. The toxicity of the carrier MTLJ-1 was also evaluated by the determination of its LD50.

[2] = Acute toxicity, determination of LD50; assay type: in vivo
Description: as §1

Ba-L strain of HIV-1 = assay: Anti-HIV-1 potency in macrophage assay (p24 ELISA); assay type: cell-based, HIV-1 in human monocyte/macrophages; conditions: for IC50: Human immunodeficiency virus 1, BAL, Macrophage
Description: (§2) Evaluation of Prodrug Anti-HIV-1 Potency in Macrophage Assay. The anti HIV-1 evaluation of the carriers and their conjugates was performed in 6-day old monocyte/macrophages at Southern Research Institute, Frederick, Md. Briefly, peripheral blood monocytes were isolated from normal HIV-1 negative donors by plastic adherence following ficoll hypaque purification of the buffy coats. The monocytes were then cultured for 6 days to a macrophage-like phenotype. The test compounds were serially diluted and added to the cultures followed by the addition of a pretitered amount of the Ba-L strain of HIV-1 obtained from the NIAID AIDS Research and Reference Reagent Repository. Cultures were washed by media removal 24 hours post infection, fresh compound added and the cultures continued for an additional 6 days. HIV p24 antigen content to assess virus replication was measured by p24 ELISA assay. AZT and ddc were used as positive control compounds and run in parallel with each determination. […] At assay termination, the assay plates were stained with the tetrazolium based dye MTS to determine cell viability and quantify compound toxicity. Using a computer program at Southern Research Institute, IC50 (50% inhibition of virus replication), TC50 (50% cytotoxicity) and a therapeutic index (TI, […]) were obtained.

[3] = Toxicity on replicate uninfected macrophage plates (MTS cell viability); assay type: cell-based, human; conditions: human, uninfected macrophages, MTS, read-out: TC50 (50% cytotoxicity)
Description: as §2

monocyte/macrophages = assay: as above; assay type: cell-based, human; conditions: Southern Research Institute tests, TABLES 7-9
Description: as §2

[4] = TABLE 8 (6a carrier and ddc prodrug, Southern Research Institute), HIV-1 Ba-L, human macrophages, p24 antigen, read-out: IC50 (50% inhibition of virus replication)
[5] = TABLE 10, Southern Research Institute under NIH contract, HIV-1 in human macrophages, read-out: IC50
[6] = TABLE 9 (6a carrier and Foscarnet prodrug)
[7] = TABLE 9 (6a carrier and Foscarnet prodrug, Southern Research Institute), HIV-1 Ba-L, human macrophages, p24 antigen, read-out: IC50 (50% inhibition of virus replication)
[8] = TABLE 10, Southern Research Institute under NIH contract
[9] = TABLE 7 (negative control carrier test)
[10] = TABLE 7 (negative control carrier test, Southern Research Institute), HIV-1 Ba-L, human macrophages, p24 antigen, read-out: IC50 (50% inhibition of virus replication)

IC50 (Ba-L strain of HIV-1; [4]): 0.07 µM
IC50 (Ba-L strain of HIV-1; [5]): 0.04 µM
Structure (SMILES): Nc1ccn([C@H]2CC[C@@H](CO)O2)c(=O)n1 [ddc, dideoxycytidine, reference compound]
TI (TC50/IC50) (Ba-L strain of HIV-1): >2,500

IC50 (Ba-L strain of HIV-1; [4]): > 100 µM
IC50 (Ba-L strain of HIV-1; [7]): 23.1 µM
IC50 (Ba-L strain of HIV-1; [5]): 2.62 µM
Structure (SMILES): CCN(c1ccc(/C(=C/C=C/C(=C2C=CC(=[N+](CC)c3ccc4c(=O)[nH][nH]c(=O)c4c3)C=C2)c2ccc(N(C)C)cc2)c2ccc(N(C)C)cc2)cc1)c1ccc2c(=O)[nH][nH]c(=O)c2c1 [6a]
CC50 at 7 days ([3]; TABLE 8 (6a carrier and ddc prodrug)): > 100 µM
CC50 at 7 days [3, 6]: > 104 µM
Toxicity in macrophage assay (in words) (monocyte/macrophages): nontoxic
TI (TC50/IC50) (Ba-L strain of HIV-1; [6]): >4.48
TI (TC50/IC50) (Ba-L strain of HIV-1; [8]): >38.2

IC50 (Ba-L strain of HIV-1; [5]): 23.1 µM
Structure (SMILES): CCN(c1ccc(/C(=C/C=C/C(=C2C=CC(=[N+](CC)c3ccc4c(=O)[nH][nH]c(=O)c4c3)C=C2)c2ccccc2)c2ccccc2)cc1)c1ccc2c(=O)[nH][nH]c(=O)c2c1 [GZW1-98-2]
TI (TC50/IC50) (Ba-L strain of HIV-1; [8]): >4.3

IC50 (Ba-L strain of HIV-1; [5]): 18.9 µM
Structure (SMILES): CCN(c1ccc(/C(=C/C=C/C=C2C=CC(=[N+](C)C)C=C2)c2ccc(N(C)C)cc2)cc1)c1ccc2c(=O)[nH][nH]c(=O)c2c1 [GZW2-33-1]
TI (TC50/IC50) (Ba-L strain of HIV-1; [8]): >5.3

Further lines, the compound ahead of its results:

Structure (SMILES): CCCC(NCCN(CC)c1ccc(/C(=C/C=C/C(OP(=O)(O)C(=O)O)(c2ccc(N(C)C)cc2)c2ccc(N(CC)CCNC(CCC)N(CC)c3ccc4c(=O)[nH][nH]c(=O)c4c3)cc2)c2ccc(N(C)C)cc2)cc1)N(CC)c1ccc2c(=O)[nH][nH]c(=O)c2c1 (stereo not drawn) [MTLJ-1-Foscarnet]
Spleen weights compared with control groups (in words) ([1]; FLV-infected Swiss mice): the same as those of the No Virus, No Treatment Group
Suppression of FLV infection in mice (in words) ([1]; FLV-infected Swiss mice, significance level of 0.01, Students T test): highly effective
Average Final Weight [1]: 22.4 g
Average Weight Change [1]: +2.5 g
Average Spleen Weight [1]: 0.0914^a g
weight gain [1]: 2.5 grams
Toxicity in vivo (in words) ([2]; from LD50 and weight gain): nontoxic
LD50 ([2]; mouse, in vivo, ip): > 1250 mg/kg

Structure (SMILES): CCCCc1ccc(C(/C=C/C=C(\c2ccc(CCCC)cc2)c2ccc(OCCN(CC)c3ccc4c(=O)[nH][nH]c(=O)c4c3)cc2)=C2C=CC(=[O+]CCN(CC)c3ccc4c(=O)[nH][nH]c(=O)c4c3)C=C2)cc1 [YY99811-1]
CC50 at 7 days [3, 9]: > 10 µM
Toxicity in macrophage assay (in words) (monocyte/macrophages): nontoxic
IC50 (Ba-L strain of HIV-1; [10]): > 10 µM

Structure (SMILES): O=C([O-])P(=O)([O-])[O-].[Na+].[Na+].[Na+] [Foscarnet, phosphonoformate, reference compound]
Average Final Weight [1]: 18.9 g
Average Weight Change [1]: +1.5 g
Average Spleen Weight [1]: 0.1727 g
weight gain [1]: 1.5 grams
CC50 at 7 days [3, 9]: > 10 µM
CC50 at 7 days [3, 6]: > 333 µM
IC50 (Ba-L strain of HIV-1; [10]): 0.55 µM
IC50 (Ba-L strain of HIV-1; [7]): 1.83 µM
TI (TC50/IC50) (Ba-L strain of HIV-1; [9]): >18
TI (TC50/IC50) (Ba-L strain of HIV-1; [6]): >182.08
